The subject of the test is Salmonella typhimurium. The experiment in a line: Antibacterial activity against salmonella typhimurium infected in gentamicin-treated mouse RAW264.7 macrophages assessed as reduction of bacterial accumulation with macrophage measured after 17.5 hrs of post infection by SAFIRE assay. The class given is functional, organism-based, Salmonella enterica subsp. enterica serovar Typhimurium. The following applies: Salmonella enterica, RAW264.7, 17.5 h.

By IC50 is commonly meant the midpoint of a concentration-inhibition curve.

Regarding `OC(COc1ccc(C2C3CC4CC(C3)CC2C4)cc1)CN1CCCCC1` (stereo unspecified), the concentration for half-maximal inhibition (IC50) was determined as 0.12 µM.

The record behind these values is ChEMBL document CHEMBL5120756, “Mycobacterial Membranes as Actionable Targets for Lipid-Centric Therapy in Tuberculosis” (J Med Chem, 2022).
